Data on six compounds can be found in patent US20090012148A1, “REDUCING CELLULAR CHOLESTEROL LEVELS AND/OR TREATING OR PREVENTING PHOSPHOLIPIDOSIS” (priority 2005, published 2009).

Common to all, as to assay type: cell-based, Chinese hamster
In data set [1] the test system is CT60 cells. The data set can be described thus: Toxicity assay by cell count (Hoechst 33258). On the procedure:
(§1) To measure toxicity, we treated CT60 and CT43 cells with compounds at 5, 10 and 20 μM for 24 h. The cell number per well was compared to control cells treated with DMSO (FIG. 7). […] Compound 1-a-14 did cause a 50% reduction in cell number at 10 μM for CT60 and an 80% reduction for CT43 cells. Compounds 1-a-4, 5, 6, 8 and 13 were partially toxic as indicated by 20-30% reduction in cell number after 24 h at 10 μM. Procedure Using Cell Count Assay: Compounds were added to CT60 and CT43 cells plated in 384 well plates at 0 (DMSO solvent control), 5, 10 and 20 μM concentrations in quadruplicate using methods similar to the dose dependence assay, except that the cells were stained with Hoechst 33258 nuclear stain. The final DMSO concentration in each well was 0.2%. For the control cells an equivalent amount of DMSO was added to the cells. The cells were incubated for 24, 48 and 72 h. After each time period, cells were washed and then fixed with 1.5% PFA. After washing the cells three times with PBS, the nuclei of the cells were stained using 5 μg/ml Hoechst 33258 (25 mg/ml stock solution in DMSO) in PBS for 45 m at room temperature. Finally, cells were washed three times with PBS, and images were obtained using a Nikon 4× Plan Apo 0.2NA objective. For Hoechst imaging we used the same filter set as for filipin. We collected one 520×696 pixel image per well at 12 intensity bits per pixel. Each pixel is 3.125 by 3.125 μm in […] the object. Cells were counted by defining the standard area of single nuclei (˜200 μm^2) interactively for each plate using the Integrated Morphometry Analysis function of MetaMorph. The number of standard areas per object above a threshold was determined, and the total number of standard areas per image was used as the cell count. The percent reduction in the number of cells compared to DMSO control was calculated for each concentration and time.

For data set [2], the system named is CT60 cells. The experiment in a line: DiI-LDL uptake. To be noted: DiI-LDL 6 μg/ml, compounds 10 μM, 20 hours, ±SEM. How it is done: CT60 cells were grown to 70% confluency in 96 well special optics plates (Corning, Inc., Corning, N.Y.). After 24 hours, cells were incubated with DiI-LDL (6 μg/ml) and hit compounds (10 μM) in screening medium supplemented with 20 mM HEPES. Each compound was added to 8 wells and an equivalent amount of DMSO with DiI-LDL was added to control wells. After 20 h, cells were washed three times with PBS, fixed with 1.5% PFA for 20 min, and stained with 50 μg/ml filipin for 45 min. Images were acquired using the Discovery-1 automatic fluorescence microscope at 20× magnification. DiI-LDL images were acquired using 535 nm/40 nm excitation filter and 610 nm/60 nm band pass with a Chroma 51001bs DiChroic filter. Filipin images were acquired as described above. Images were acquired for 4 sites per well, yielding 32 images per compound. The DiI-LDL images were background and shade corrected as described above. A low threshold was set to define the cell area based on filipin images. Finally, the average DiI-LDL intensity was measured per cell area.
Cells were incubated with DiI-LDL (6 μg/ml) in the presence of compounds (10 μM) for 20 hours. The intensity per unit cell area was measured as described in Methods. Values are normalized to the intensity per cell area for control (solvent-treated) cells. Values are based on averages from 32 images from 8 wells for each condition. ±SEM.

Data set [3] deals with 25RA CHO cells. The data set can be described thus: 3H cholesterol efflux assay on 25RA CHO cells. Particulars: 10 μM, overnight chase. On the procedure: 25RA CHO cells were incubated with 10 μM concentrations of compound 2-a-1, 2-a-3,2-a-8, 2-a-9, and 2-a-13. Cells were loaded with ^3H cholesterol and then chased overnight in the presence or absence of the various compounds. The media over the cells were removed, and radioactivity released from the cells was measured. The cells were then solubilized, and radioactivity remaining in the cells was measured. […] The 25-RA cells do have a defect in SCAP, which alters cholesterol homeostasis, including increased synthesis of cholesterol.

The test system of data set [4] is CT60 cells. The experiment in a line: Gas chromatography cholesterol assay. On the procedure: The cholesterol lowering effect of the 14 hit compounds identified by filipin labeling was measured by an alternative chemical method that involved GC separation of solvent-extracted cellular lipids (43). CT60 cells were treated with compounds at 10 μM under the same conditions as in the screening assays. Since the GC assay estimates FC content per cell, the values are compared to the average filipin intensity assay (Table 1).
CT60 or CT43 cells were plated on day 1 in 6-well plates. Hit compounds were added to the cells at 10 μM concentration. Cells were incubated for 24 h. Cellular lipids were extracted with hexane: iso-propyl alcohol (3:2 v/v). The lipid extracts were dried and re-suspended in hexane followed by separation on gas chromatograph using β-sitosterol as an internal standard.
Procedure: CT60 cells were plated in 6-well plates in Ham's F-12/1.176 g/L sodium bicarbonate/2 g/L glucose/10% FBS. Following 24 h incubation, cells were treated with 10 μM of each compounds, medium being replaced with Ham's F-12/1.176 g/L sodium bicarbonate/2 g/L glucose/5.5% FBS/20 mM HEPES. The change of the medium in the wells was performed to have experimental conditions similar to those used for the screening once chemical compounds were added to the cells. After 18 h treatment with compounds, cells were washed twice with Hank's balanced salt solutions (HBSS). Cellular lipids were extracted with hexane/isopropyl alcohol (3:2 v/v) (43) dried and resuspended in hexane followed by separation on a gas chromatograph (GC) using following conditions. A Hewlett Packard GC model HP 5890 series II (Palo Alto, Calif.) equipped with a flame ionization detector, split-splitless injector, and 15 m×0.53 mm HP-5 capillary column coated with […] film thickness of 5% phenyl methyl siloxane was used to separate free cholesterol. The injection temperature was maintained at 255° C. and oven temperature was held isothermally at 260° C. using helium as a mobile phase at 30 mL/min flow rate. The free cholesterol (FC) was quantified using beta-sitosterol as internal standard to correct for lipid losses during extraction.

Data set [5] relates to CT43 cells. The data set can be described thus: Toxicity assay by cell count (Hoechst 33258). Particulars: 24 h. On the procedure:
as §1

Take `CCN(CC)c1ccc(C=C2SC(=S)N(c3ccc(OC)cc3)C2=O)cc1` [Compound 2-a-3]: the “Cell Count After 24 h @ 10 μM dose Fraction of Control” value in data set [1] (10 μM) was 1.00 Fraction of Control. Besides, in data set [2], the “DiI Intensity/cell area Fraction of control” value is listed as 0.62 ± 0.01 Fraction of control. Further, in data set [3], the efflux of cholesterol result is reported as “promote efflux of cholesterol”. The “μg FC/μg Protein (GC) @ 10 μM dose Fraction of Control” value in data set [4] was 0.81 ± 0.03 Fraction of Control.

Consider `C=CCN1C(=O)C(=Cc2cc(C)n(-c3ccccc3)c2C)C(C(=O)OC)=C1C` [Compound 2-a-15], for which the “Cell Count After 24 h @ 10 μM dose Fraction of Control” value in data set [1] (10 μM) is on record as 0.94 Fraction of Control. Further, in data set [2], the “DiI Intensity/cell area Fraction of control” value was 1.00 ± 0.01 Fraction of control. Besides, the “μg FC/μg Protein (GC) @ 10 μM dose Fraction of Control” value in data set [4] is 0.89 ± 0.03 Fraction of Control.

Turning to `CCOc1cccc2cc(-c3csc(Nc4cccc(C(F)(F)F)c4)n3)c(=O)oc12` [Compound 1-a-14], the “reduction in cell number” value in data set [5] (10 μM) is 80%; in data set [1] (10 μM, 24 h), 50%. Further, the “μg FC/μg Protein by GC Fraction of control” value in data set [4] (10 μM, FC = free cholesterol) was 1.44 ± 0.16 Fraction of control.

With `O=[N+]([O-])c1cccc(C=NNc2nc(Nc3cccc4ccccc34)nc(N(c3ccccc3)c3ccccc3)n2)c1` [Compound 2-a-13], the “Cell Count After 24 h @ 10 μM dose Fraction of Control” value in data set [1] (10 μM) is listed as 1.00 Fraction of Control. Further, in data set [2], the “DiI Intensity/cell area Fraction of control” value is reported as 0.72 ± 0.01 Fraction of control. For the same compound, in data set [3], the efflux of cholesterol entry is “promote efflux of cholesterol”. In addition, in data set [4], the “μg FC/μg Protein (GC) @ 10 μM dose Fraction of Control” value is given as 0.79 ± 0.04 Fraction of Control.

With `FC(F)(F)COc1nc(NN=Cc2cccc(I)c2)nc(N(c2ccccc2)c2ccccc2)n1` [Compound 2-a-12], the “reduction in the number of cells” value in data set [5] (20 μM) is on record as 75%; in data set [1] (20 μM, 24 h), 75%. In addition, the “Cell Count After 24 h @ 10 μM dose Fraction of Control” value in data set [1] (10 μM) is on record as 0.67 Fraction of Control. Besides, the “DiI Intensity/cell area Fraction of control” value in data set [2] is reported as 0.72 ± 0.01 Fraction of control.

Turning to `COc1ccccc1Nc1nc(Nc2ccccc2OC)nc(Nc2ccccc2OC)n1` [Compound 2-a-9], the “Cell Count After 24 h @ 10 μM dose Fraction of Control” value in data set [1] (10 μM) is 0.90 Fraction of Control. Further, the “DiI Intensity/cell area Fraction of control” value in data set [2] is on record as 0.85 ± 0.01 Fraction of control. The efflux of cholesterol entry in data set [3] is “promote efflux of cholesterol”. Further, the “μg FC/μg Protein (GC) @ 10 μM dose Fraction of Control” value in data set [4] is listed as 0.75 ± 0.04 Fraction of Control.
